Data set [1] is described as follows: Mammalian cytotoxicity, MTT assay (48 h). As to conditions: mouse. The class given is cell-based. As to the method:
(§1) The trypomastigote forms of T. cruzi (Y strain) were maintained in culture using Rhesus monkey kidney cells (LLC-MK2, ATCC CCL-7). These cells were cultured in RPMI-1640 medium supplemented with 2% fetal bovine serum (FBS) and incubated at 37 °C in a humidified atmosphere containing 5% CO2. Mouse fibroblast cells (NCTC clone L929, ATCC) and LLC-MK2 cells were similarly maintained in RPMI-1640 medium supplemented with 10% FBS under identical incubation conditions (37 °C, 5% CO2). Peritoneal macrophages were isolated from BALB/c mice by peritoneal lavage using RPMI-1640 medium supplemented with 10% FBS, followed by incubation at 37 °C in a 5% CO2 humidified atmosphere. In addition, the human monocytic cell line THP-1 (ATCC TIB-202) was cultured in RPMI-1640 medium supplemented with 20% FBS and […] glutamine, and maintained at 37 °C in a humidified 5% CO2 environment.
The cytotoxicity of compounds 1–6 was assessed using NCTC (clone L929) cell line. NCTC cells (6 × 10^4 cells/well) were seeded into 96-well plates and treated with serial dilutions of the test compounds prepared in RPMI-1640 medium supplemented with 10% fetal bovine serum (FBS). Following a 48-h incubation at 37 °C in a humidified atmosphere with 5% CO2, cell viability was determined using the MTT colorimetric assay. The 50% cytotoxic concentration (CC50) was calculated based on absorbance measurements at 570 nm using a FilterMax F5 microplate reader (Molecular Devices).
(§2) The CC50 and EC50 values were obtained from sigmoid dose–response curves using Graph-Pad Prims 6.0 software. All samples were tested in triplicate.
A general note: Tetrazolium dyes change colour on reduction, which living cells bring about.

The test system of data set [2] is intracellular amastigote forms of T. cruzi. Put plainly: Activity against intracellular amastigote forms of T. cruzi in infected peritoneal macrophages (48 h). Particulars: Trypanosoma cruzi, Peritoneal macrophage, intracellular amastigotes in peritoneal macrophages, ± SD, NA: nonactive. It counts as cell-based. How it is done:
as §1
The antiparasitic activity of compounds 1–6 against the intracellular amastigote forms of T. cruzi was assessed using an in vitro infection model with peritoneal macrophages. Macrophages were seeded in 16-well plates at a density of 1 × 10^5 cells per well and incubated at 37 °C in a humidified atmosphere containing 5% CO2 for 24 h to promote adherence. Cells were then infected with trypomastigotes for 2 h under the same conditions to allow parasite internalization. Following infection, noninternalized parasites were removed by washing with RPMI-1640 medium. The infected macrophages were subsequently treated with serial dilutions of compounds 1–6 (150.0–1.6 μM) and incubated for an additional 48 h at 37 °C in 5% CO2 to evaluate their antitrypanosomal efficacy. ,
as §2

The subject of data set [3] is T. cruzi trypomastigotes (Y strain). As to the kind of experiment: Anti-T. cruzi activity against trypomastigote forms (resazurin reduction assay, 24 h). The class given is cell-based. Particulars: Trypanosoma cruzi, ± SD. How it is done: as §1
Compounds 1–6 were initially dissolved in DMSO and subsequently diluted in RPMI-1640 medium to the desired concentrations before being dispensed into 96-well microplates. T. cruzi trypomastigotes were then added at a density of 1 × 10^6 parasites per well. The plates were incubated for 24 h at 37 °C in a humidified atmosphere containing 5% CO2. Following incubation, the 50% effective concentration (EC50) was determined using the resazurin reduction assay. Absorbance readings were acquired at 570 nm using a microplate spectrophotometer (FilterMax F5). Untreated parasites served as the negative control, while benznidazole, a standard reference drug, was used as the positive control.
as §2
(The colour change of resazurin is a common sign of viable cells or microbes.)

The next data set relates to Leishmania infantum. On the set-up: method as in previous study by our group. As to conditions: after a short incubation period; ref previous study by our group; cited from earlier work.
Where [4] appears, read: NCTC clone L929 fibroblast cells.

A value given as a limit tells only on which side of the number the result lay.

By CC50 is commonly meant the concentration at which the toxic effect on the cells reaches its halfway point. Read a low CC50 as harm at low concentration. What is called EC50 is the midpoint of the concentration-response curve. Read a high EC50 as a need for much substance. `CC(C)=CCC[C@@H](C)C1=CC(=O)[C@@](C)(O)CC1` (relative stereo) [Compound 1, rel-(3S,7R)-3-hydroxy-bisabola-1(6),10-dien-2-one] returned a CC50 at 48 h in data set [1] (setting [4]) of more than 200 µM. Moreover, the EC50 in data set [2] worked out at 6.7 ± 3.8 µM; in data set [3] it was 38.5 ± 2.7 µM.

In the case of `CC(C)=CCC[C@@H](C)C1=C[C@H](O)[C@@](C)(O)CC1` (relative stereo) [Compound 2, rel-(2S,3S,7R)-bisabola-1(6),10-diene-2,3-diol], the CC50 at 48 h in data set [1] (setting [4]) is more than 200 µM. The results for the EC50 in data set [2] and in data set [3] were 24.2 ± 4.4 µM and 88.3 ± 6.5 µM, respectively.

In data set [1] (setting [4]), `CC(C)=CCC[C@@H](C)[C@]12C=C[C@](C)(CC1)OO2` (relative stereo) [Compound 3, rel-(3S,6R,7R)-3,6-epidioxy-1,10-bisaboladiene] registered a CC50 at 48 h of more than 200 µM. In data set [3], this compound came in with an EC50 of 65.5 ± 5.4 µM.

The compound `CC(C)=CCC[C@@H](C)c1ccc(C)cc1` [Compound 4, α-curcumene] returned a CC50 at 48 h in data set [1] (setting [4]) of more than 200 µM. Also, the EC50 in data set [2] came to 4.9 ± 0.1 µM; in data set [3] it was 20.5 ± 1.6 µM.

In data set [1] (setting [4]), `CC1(C)CCC[C@]2(C)[C@@H](C=O)C(C=O)=CC[C@@H]12` [Compound 5, polygodial] had a CC50 at 48 h of more than 200 µM. Moreover, the “ultrastructural damage to Leishmania” value in the data set on Leishmania infantum is listed as “intense mitochondrial swelling”. Moreover, the EC50 was 3.5 ± 0.2 µM in data set [2] and 3.8 ± 3.1 µM in data set [3].

On to `C=C1[C@@H](C)CC[C@]2(C)[C@@H](C=O)C(C=O)=CC[C@@H]12` [Compound 6, 9-deoxymuzigadial], for which, in data set [1] (NCTC clone L929 cells), the CC50 at 48 h is more than 200 µM. For the same compound, the figures for the EC50 in data set [2] and in data set [3] were 3.1 ± 0.1 µM and 5.9 ± 0.9 µM, respectively.

With `O=C(Cn1ccnc1[N+](=O)[O-])NCc1ccccc1` [benznidazole, reference compound], the CC50 at 48 h in data set [1] (setting [4]) was more than 200 µM. Also, the EC50 worked out at 5.5 ± 2.2 µM in data set [2] and 17.4 ± 1.8 µM in data set [3].

Values taken from PMC12613110, “Anti-Trypanosoma cruzi Effects of Sesquiterpenoids from Branches of Drimys brasiliensis (Winteraceae)” (ACS Omega, 2025).
